From patent EP4813979A1, “COMPOUND FOR EGFR PROTEIN DEGRADATION AND USE THEREOF” (TYK Medicines, Inc., priority 2023, dated 2025)
Where two headings read alike, the source gives them in different places.

What was measured:
PC-9 = experiment: Cell anti-proliferation experiment (CTG); assay type: cell-based; settings: Homo sapiens, PC-9 (EGFR exon 19 deletion), class symbol
Text: (§1) H1975 has an EGFR: T790M/L858R double mutation, PC-9 has an EGFR exon 19 deletion, and HCC827 has an exon 19 deletion mutation. Baf3-19del- T790M -C797S (Baf3-DTC) is a stable Ba/F3 clone expressing exogenous EGFR gene bearing T790M, C797S, and […] triple amino acid mutations, purchased from KYinno. Baf3-L858R-T790M - C797S (Baf3-LTC) is a stable Ba/F3 clone expressing exogenous EGFR gene bearing […], T790M, and C797S triple mutations, purchased from KYinno. A549 is a wild-type EGFR, purchased from Nanjing Kebai Biotechnology. A431 is a wild-type EGFR, purchased from Shanghai Xinyu Biotechnology. CellCounting-Lite2.0, Trypsin EDTA, 37°C CO2 incubator, cell counter, EnVision Serial No. 1050454.
(§2) • A) Digested logarithmic phase cells with Trypsin EDTA, added culture medium to stop the reaction, and mixing well with a pipette to prepare a cell suspension. • B) Used Vi-cell to determine cell concentration, and prepared a suspension of 15,000-25,000 cells per milliliter according to the experimental purpose and cell characteristics. • C) After prepared the cell suspension, mixed it gently and added 100 µL to each well, so that the cell density to be tested is 1500-2500 per well.
(§3) • A) Weighed approximately 2 mg the compound and calculated the required volume of DMSO according to the formula: Compound mass (mg) * Compound purity (%) / Compound molecular weight * 1000. • B) Placed the inoculated cell culture plate into an incubator and incubated for about 24 hours. Then added compounds of varying concentrations. • C) Diluted the 10mM compound stock solution to […] with culture medium, and added the […] compound solution to the second column of the deep well plate in sequence, and added […] culture medium containing 0.5% DMSO to the third to eleventh columns. • D) Gradient dilution: Taked 125 µL solution from the second column and added it to the third column, mix well; then taked 125 µL solution from the third column and added it to the fourth column, repeated this operation until the tenth column. • E) Used a multichannel pipette, aspirated 25 µL the compound from the deep-well plate and added it to a 96-well culture plate. Repeated this process three times for each compound on the 96-well plate. This will ultimately create a concentration gradient of up to 10,000 nM at a 1:4 ratio on the 96-well plate.
(§4) • A) The effects of the compound were observed under an inverted microscope after the 96-well plate was incubated in an incubator for 72 hours. • B) Added 25 µL CTG solution to each well, placed on a shaker for 10 minutes, and read the […] of each well.
(§5) Calculate the % Cell Viability using the following formula: %Cell Viability = 100% × (Lum_Sample−Lum_LC)/(Lum_HC−Lum_LC) [formula] • Lum_HC: Cell readings from the 0.1% DMSO control group • Lum_Sample: Cell readings with added compound • Lum_LC: Blank culture medium reading
(§6) The IC50 value was obtained by curve fitting using GraphPad Prism 8 software.

A431 = experiment: Cell anti-proliferation experiment (CTG); assay type: cell-based; settings: Homo sapiens, A431 (wild-type EGFR), class symbol
Text: as §1, §2, §3, §4, §5, §6

H1975 = experiment: Cell anti-proliferation experiment (CTG); assay type: cell-based; settings: Homo sapiens, H1975 (EGFR T790M/L858R), class symbol
Text: as §1, §2, §3, §4, §5, §6

A549 = experiment: Cell anti-proliferation experiment (CTG); assay type: cell-based; settings: Homo sapiens, A549 (wild-type EGFR), class symbol
Text: as §1, §2, §3, §4, §5, §6

[1] = test system: Baf3-19del- T790M -C797S (Baf3-DTC); experiment: Cell anti-proliferation experiment (CTG); assay type: cell-based; settings: class symbol
Text: as §1, §2, §3, §4, §5, §6

HCC827 = experiment: Cell anti-proliferation experiment (CTG); assay type: cell-based; settings: Homo sapiens, HCC827 (exon 19 deletion), class symbol
Text: as §1, §2, §3, §4, §5, §6

[2] = test system: Baf3-L858R-T790M - C797S (Baf3-LTC); experiment: Cell anti-proliferation experiment (CTG); assay type: cell-based; settings: class symbol
Text: as §1, §2, §3, §4, §5, §6

[3] = target: EGFR in Baf3-L858R-T790M-C797S (Homo sapiens, UniProt P00533, C797S/L858R/T790M); experiment: EGFR PROTAC HTRF experiment (total EGFR degradation); assay type: cell-based
Sequence of EGFR in Baf3-L858R-T790M-C797S (P00533 25-1210 T790M/C797S/L858R): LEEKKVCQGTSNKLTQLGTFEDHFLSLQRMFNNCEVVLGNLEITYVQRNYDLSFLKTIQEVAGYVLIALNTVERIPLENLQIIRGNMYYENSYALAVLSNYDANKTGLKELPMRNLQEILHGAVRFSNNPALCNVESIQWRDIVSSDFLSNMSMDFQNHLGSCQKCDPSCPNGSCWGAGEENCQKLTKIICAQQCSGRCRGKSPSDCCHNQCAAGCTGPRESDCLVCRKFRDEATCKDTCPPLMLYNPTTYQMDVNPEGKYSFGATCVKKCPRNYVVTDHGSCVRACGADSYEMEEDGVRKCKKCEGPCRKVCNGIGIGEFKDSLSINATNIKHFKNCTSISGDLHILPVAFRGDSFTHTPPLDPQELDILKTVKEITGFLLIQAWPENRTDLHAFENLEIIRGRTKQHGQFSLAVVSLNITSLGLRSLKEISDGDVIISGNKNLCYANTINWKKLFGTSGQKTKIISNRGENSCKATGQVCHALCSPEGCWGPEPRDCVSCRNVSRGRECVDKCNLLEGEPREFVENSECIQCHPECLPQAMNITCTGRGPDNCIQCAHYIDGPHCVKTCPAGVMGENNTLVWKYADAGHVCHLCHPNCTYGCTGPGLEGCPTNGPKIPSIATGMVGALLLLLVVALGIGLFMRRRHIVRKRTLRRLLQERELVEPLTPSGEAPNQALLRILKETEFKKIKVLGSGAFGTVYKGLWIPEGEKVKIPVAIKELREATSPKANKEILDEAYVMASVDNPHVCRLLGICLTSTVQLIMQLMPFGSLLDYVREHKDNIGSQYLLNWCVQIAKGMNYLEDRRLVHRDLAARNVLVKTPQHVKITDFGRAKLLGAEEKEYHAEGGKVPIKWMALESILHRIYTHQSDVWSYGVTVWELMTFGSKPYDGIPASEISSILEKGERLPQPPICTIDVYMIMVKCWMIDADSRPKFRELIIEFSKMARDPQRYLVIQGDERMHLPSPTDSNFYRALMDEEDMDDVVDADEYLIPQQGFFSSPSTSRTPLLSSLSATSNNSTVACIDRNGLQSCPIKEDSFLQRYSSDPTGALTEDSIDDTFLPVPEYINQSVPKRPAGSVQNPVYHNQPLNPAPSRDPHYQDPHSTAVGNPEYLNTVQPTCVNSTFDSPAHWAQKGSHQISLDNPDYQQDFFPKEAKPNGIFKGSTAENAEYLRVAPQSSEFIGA
Protocol: (§7) [table] Among them, B[…] -C797S (abbreviated as Baf3-DTC) is a stable Ba/F3 clone expressing exogenous EGFR gene bearing T790M, C797S and […] triple amino acid mutations, purchased from KYinno; Baf3-L858R-T790M - C797S (abbreviated as Baf3-LTC) is a stable Ba/F3 clone expressing exogenous EGFR gene bearing […], T790M, C797S triple mutations, purchased from KYinno. [table] [table] Dilutded Eu and d2 antibodies 2μl per well with detection buffer 20-fold. Then mixed the two antibody vials thoroughly. [table] Opened EnVision , locate the HTRF program, configured the board, and then read […]. The fitted curve, DC50 and Dmax of this compound could be generated using GraphPad Prism .

[4] = target: EGFR in Baf3-19del-T790M-C797S (Homo sapiens, UniProt P00533, C797S/DEL746-750/T790M); experiment: as above; assay type: cell-based
Sequence of EGFR in Baf3-19del-T790M-C797S (P00533 with tags, fused parts or gaps DEL746-750/T790M/C797S): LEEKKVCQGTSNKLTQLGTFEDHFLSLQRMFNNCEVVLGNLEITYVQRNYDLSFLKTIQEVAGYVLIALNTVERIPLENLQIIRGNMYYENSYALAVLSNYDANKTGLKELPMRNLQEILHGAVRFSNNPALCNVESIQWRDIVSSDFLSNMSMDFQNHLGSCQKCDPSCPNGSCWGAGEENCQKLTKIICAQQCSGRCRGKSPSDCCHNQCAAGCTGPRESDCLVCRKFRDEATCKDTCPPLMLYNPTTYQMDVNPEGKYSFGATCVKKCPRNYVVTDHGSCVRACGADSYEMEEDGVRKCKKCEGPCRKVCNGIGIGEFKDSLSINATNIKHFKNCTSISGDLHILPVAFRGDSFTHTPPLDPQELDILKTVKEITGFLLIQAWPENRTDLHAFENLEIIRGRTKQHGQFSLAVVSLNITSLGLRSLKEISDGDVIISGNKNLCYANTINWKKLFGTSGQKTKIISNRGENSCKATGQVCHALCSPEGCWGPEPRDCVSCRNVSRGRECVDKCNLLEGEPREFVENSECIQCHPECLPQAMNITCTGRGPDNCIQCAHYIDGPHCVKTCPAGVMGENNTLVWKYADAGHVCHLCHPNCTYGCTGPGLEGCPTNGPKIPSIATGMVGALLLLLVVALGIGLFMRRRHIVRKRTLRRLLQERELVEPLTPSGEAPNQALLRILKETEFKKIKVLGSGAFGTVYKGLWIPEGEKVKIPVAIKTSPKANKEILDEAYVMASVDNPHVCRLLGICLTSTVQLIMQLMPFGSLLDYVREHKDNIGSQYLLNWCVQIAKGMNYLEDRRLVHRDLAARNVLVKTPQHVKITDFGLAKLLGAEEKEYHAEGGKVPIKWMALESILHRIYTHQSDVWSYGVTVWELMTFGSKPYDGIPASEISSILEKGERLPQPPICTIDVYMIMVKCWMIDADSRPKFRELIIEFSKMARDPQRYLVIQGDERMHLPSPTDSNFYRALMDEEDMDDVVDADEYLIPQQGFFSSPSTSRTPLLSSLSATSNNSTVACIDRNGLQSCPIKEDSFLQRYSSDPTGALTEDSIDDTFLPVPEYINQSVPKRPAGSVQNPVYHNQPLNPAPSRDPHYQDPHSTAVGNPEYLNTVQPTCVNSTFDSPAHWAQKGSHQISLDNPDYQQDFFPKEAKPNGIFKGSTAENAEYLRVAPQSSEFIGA
Protocol: as §7

[5] = Pharmacokinetic tests in male SD rats; assay type: in vivo; settings: oral gavage (po), 10 mg/kg, plasma; for AUC(0-inf) / AUC(0-t) / Cmax / MRT last / Tmax: rat
Protocol: Three healthy adult male SD rats, 6-8 weeks old, weighing 200-300 grams.
EDTA-Na2 anticoagulant, weighed 11.2 g EDTA-Na2 and placed it in a reagent bottle. Added 100 mL physiological saline and shaked to dissolve completely. After preparation, dispensed into 1.5 mL centrifuge tubes, each containing approximately 20 µL, for whole blood sample collection.
Accurately weighed approximately 10 mg the sample to be tested, added 10% of the converted total volume of DMSO to dissolve it, and then slowly added 90% of the total volume of 0.5% MC solvent while stirring. Sonicated and vortex to mix thoroughly to obtain a solution of the preparation that is considered to be homogeneous, with a concentration of 1 mg/mL. Prepared fresh immediately before use.
Piped 0.2 mL the sample into a 1.5 mL centrifuge tube and store at -80°C for analysis of the concentration of the drug solution.
Animals were housed in rat cages and fasted for at least 10 hours starting the day before the experiment, but water was allowed. On the day of the experiment, each animal was weighed and marked on its tail. Blank blood samples were collected before drug administration. Blood was collected via tail vein.
• Route of administration: Oral gavage (po); • Dosage concentration: 1 mg/ml; • Dosage: 10 mg/kg; • Dosage volume: 10 mL/kg; • Procedure: Hold the rat upright with your left hand wearing a bite-proof glove, insert the gavage needle into the throat through the mouth, and insert the needle when feeling no obvious resistance. Then inject the drug into the stomach.
Whole blood (0.1-0.2 ml) was collected from test animals at 0.5 h, 1 h, 2 h, 4 h, 6 h, 8 h, 12 h, and 24 h after drug administration. The samples were placed in EDTA-Na 2 anticoagulant tubes, inverted 3-4 times to mix, and centrifuged at 4°C, 2000 g for 5 min to separate the supernatant plasma. The plasma was promptly transferred to -80°C for storage until analysis. Blood was collected via tail vein.
A quantitative detection method for the analyte was established using Shimadzu liquid chromatography and Triple Quad™ 6500+AB mass spectrometry. The concentration of the parent drug in plasma was analyzed. The analytical results were controlled for variation using quality control samples, with the accuracy of the quality control samples expected to be between 80% and 120%.
The main pharmacokinetic parameters were calculated using a non-compartmental model in Winnonlin Phoenix software. These parameters included the area under the curve (AUC(0-t) and AUC(0-∞)), elimination half-life (T1/2), maximum plasma concentration (Cmax ), and time to reach maximum plasma concentration (Tmax).The results are shown in Table 3.

[6] = read-out: Baf3-LTC DC50; Baf3-LTC, incubated 16 hours, HTRF total EGFR
[7] = read-out: Baf3-DTC DC50; Baf3-DTC, incubated 16 hours, HTRF total EGFR
[8] = Baf3-LTC, incubated 16 hours, HTRF total EGFR; read-out: Baf3-LTC DC50
[9] = Baf3-LTC, incubated 16 hours, HTRF total EGFR; read-out: Baf3-LTC Dmax
[10] = Baf3-DTC, incubated 16 hours, HTRF total EGFR; read-out: Baf3-DTC DC50
[11] = Baf3-DTC, incubated 16 hours, HTRF total EGFR; read-out: Baf3-DTC Dmax

Compound	IC50 (PC-9; 72 hours) [nM]	IC50 (A431; A-431, 72 hours) [nM]	IC50 (H1975; NCI-H1975, 72 hours) [nM]	IC50 (A549; 72 hours) [nM]	IC50 ([1]; 72 hours) [nM]	IC50 (HCC827; 72 hours) [nM]	IC50 ([2]; 72 hours) [nM]	DC50 [3, 6] [nM]	Dmax ([3]; read-out: Baf3-LTC Dmax) [%]	DC50 [4, 7] [nM]	Dmax ([4]; read-out: Baf3-DTC Dmax) [%]	HL [5] [h]	AUC(0-inf) [5] [ng·h/mL]	AUC(0-t) [5] [ng·h/mL]	Cmax [5] [ng/mL]	MRT last [5] [h]	Tmax [5] [h]	IC50 (PC-9; PC-9, 72 h) [nM]	IC50 (A431; A-431, 72 h) [nM]	IC50 (H1975; NCI-H1975, 72 h) [nM]	further results
CCc1cc(Nc2ncc(Cl)c(Nc3ccc4nccnc4c3P(C)(C)=O)n2)c(OC)cc1N1CCN(C(=O)CN2CCC(c3cc4c(cc3F)c(N3CCC(=O)NC3=O)nn4C)C(F)(F)C2)CC1 (centres unmarked) [TA-007]	100 to 1000	10 to 100	100 to 1000	10 to 100	10 to 100	10 to 100	< 10	< 10	70 to 100	< 10	70 to 100										
CCc1cc(Nc2ncc(Br)c(Nc3ccccc3P(C)(C)=O)n2)c(OC)cc1N1CCN(C(=O)CN2CCC(c3cc4c(cc3F)c(N3CCC(=O)NC3=O)nn4C)C(F)(F)C2)CC1 (centres unmarked) [TC-158]	100 to 1000	> 1000	10 to 100	> 1000	< 10	100 to 1000	< 10	< 10	70 to 100	< 10	70 to 100	2.81	5610	5590	533	6.02	2.67				
CCc1cc(Nc2ncc(Cl)c(Nc3ccccc3C(=O)NC)n2)c(OC)cc1N1CCN(CCN2CCC(c3cc4c(cc3F)c(N3CCC(=O)NC3=O)nn4C)CC2)CC1 [TD-001]																		100 to 1000	> 1000	< 10	IC50 (A549; A549, 72 h): 10 to 100 nM; IC50 ([1]; 72 h): 10 to 100 nM; IC50 (HCC827; HCC827, 72 h): < 10 nM; IC50 ([2]; 72 h): 10 to 100 nM; DC50 [3, 8]: 10 to 100 nM; Dmax [3, 9]: 50 to 70%; DC50 [4, 10]: 100 to 1000 nM; Dmax [4, 11]: 50 to 70%
CCc1cc(Nc2ncc(Br)c(Nc3ccccc3P3(=O)CCCC3)n2)c(OC)cc1N1CC2(CCN(C(=O)CN3CCC(c4cc5c(cc4F)c(N4CCC(=O)NC4=O)nn5C)C(F)(F)C3)CC2(F)F)C1 (centres unmarked) [TB-010]												3.59	5800	5730	482	6.6	4	100 to 1000	> 1000	< 10	IC50 (A549; A549, 72 h): > 1000 nM; IC50 ([1]; 72 h): 10 to 100 nM; IC50 (HCC827; HCC827, 72 h): 10 to 100 nM; IC50 ([2]; 72 h): 10 to 100 nM; DC50 [3, 8]: < 10 nM; Dmax [3, 9]: 70 to 100%; DC50 [4, 10]: < 10 nM; Dmax [4, 11]: 70 to 100%
